# In patent US7879795B2, “Enhancement of tigecycline potency using efflux pump inhibitors” (Mpex Pharmaceuticals, Inc., priority 2004, dated 2011):
# Columns and labels:
# [1] = tested on: P. aeruginosa overexpressing (strain PAM1723) or lacking (PAM1626) efflux pumps; test: Stability in P. aeruginosa cultures; format: in vitro ADME; conditions: 50 μg/ml, PAM1723 and PAM1626
# Method: Overnight cultures of two different strains of P. aeruginosa overexpressing (strain PAM1723) or lacking (PAM1626) efflux pumps were incubated with compounds 1 or 3 at 50 μg/ml for various times. Compounds were extracted using 4% TCA and analysed by LC/MC/MC.
# [2] = Rat serum pharmacokinetics after 2-hour IV infusion; format: in vivo; conditions: serum, 2-hour IV infusion, total dose 10 mg/kg, two-compartment model
# Method: Rat serum pharmacokinetics of compounds 1, 3, 7, and 21 was evaluated after 2-hour IV infusion of 1 mg/ml EPI solution in 0.9% saline. Total infused dose was 10 mg/kg. FIG. 12 depicts the serum concentrations as a function of time. A two-compartment model was used to fit the data and calculate PK parameters.
# [3] = tested on: P. aeruginosa strain PAM1723 overexpressing MexAB-OprM efflux pump; test: Neutropenic mice thigh model of PA infection; format: in vivo; conditions: levofloxacin 30 mg/kg SQ, EPI 60 mg/kg IP, 2 hours post-infection
# Method: Efficacy of the EPIs was evaluated in a Neutropenic Mice Thigh Model of P. aeruginosa Infection. Neutropenia was induced by cyclophosphamide 100 mg/kg IP on days 3 and 1 prior to infection. P. aeruginosa strain PAM1723 overexpressing MexAB-OprM efflux pump was grown overnight in Mueller-Hinton Broth (MHB). The next day, the overnight culture was diluted in fresh MHB and was allowed to re-grow to ˜10^8 CFU/mL (OD600˜0.3). The culture was spun down, washed twice with phosphate buffered saline (PBS) and re-suspend in PBS to ˜4×10^6 CFU/mL. Next, this culture was mixed 1:1 with 14% hog-gastric mucin in PBS to give a final inoculum of 2×10^6 CFU/mL. Infection was initiated with injection of 0.1 mL of inoculum (˜2×10^5 CFU/thigh) directly into both thighs of each mouse. Two mice from each treatment group were euthanized at various times after the start of treatment. The thighs were removed aseptically, homogenized in saline, and immediately plated to determine bacterial load (CFU/ml). Treatment was initiated 2 hours post infection.
# [4] = Tissue levels after 2-hour IV infusion in rats; format: in vivo, rat; conditions: for concentration at 4 h: 2 h after end of 2-hour IV infusion; for concentration at 4 h / concentration at 2 h / concentration at 6 h: 10 mg/kg; for concentration at 2 h: end of 2-hour IV infusion; for tissue levels and clearance from tissues after 2-hour IV infusion: rat, in words; for concentration at 6 h: 4 h after end of 2-hour IV infusion
# Method: Levels of EPIs in various tissues were evaluated after 2-hour IV infusion in rats. The rats received 10 mg/kg IV infusion through FVC. Animals were divided into 2 groups: group 1 was sacrificed immediately after the end of infusion and group 2, 2 h or 4 h after the end of infusion. Tissues from each animal were collected, homogenized and compounds were extracted. Tissues were mixed with saline at 1:1 ratio (v/w) in 12×75 mm polypropylene round bottom tubes. The mixtures were homogenized with a Polytron homogenizer (on ice, 3×10-15 seconds with 30 seconds intervals at the setting of 7). 50 μl of homogenized tissue were immediately transferred to an Eppendorf tube and 2-volumes of 4% TCA were added. After vortexing for 30 seconds, the tubes were centrifuged in a microfuge at top speed (13.2 k rpm) for 5 minutes. The supernatant was collected, and 45 μl of the supernatant was transferred to a glass LC/MS/MS vial (Kimble, 11 mm, 1.5 ml) for analysis, which allowed determination of tissue levels of EPIs at the end of the infusion and 2 h or 4 h later.
# [5] = tested on: strain 29A2 of P. aeruginosa overexpressing MexAB-OprM efflux pump; test: Neutropenic mice lung model of PA infection; format: in vivo; conditions: for bacterial load in infected lungs, EPI with levofloxacin: levofloxacin 30 mg/kg SQ plus EPI IP
# Method: Neutropenia was induced by cyclophosphamide 100 mg/kg IP on days 3 and 1 prior to infection. The strain 29A2 of P. aeruginosa overexpressing MexAB-OprM efflux pump was grown overnight in Mueller-Hinton Broth (MHB). The next day overnight culture was diluted in fresh MHB and was allowed to re-grow to ˜10^8 CFU/mL (OD600˜0.3). The culture was spun down, washed twice with phosphate buffered saline (PBS) and re-suspended in PBS to ˜4×10^7 CFU/mL. 50 μl of inoculum was used for intratracheal instillation of mice, which were anesthetized with sevoflourane/oxygen. […] Four mice from each treatment group were euthanized at various times after the start of treatment. The lungs were removed aseptically, homogenized in saline, and immediately plated to determine bacterial load (CFU/ml) in infected lungs. P. aeruginosa is plotted as a function of time in FIG. 20.
# [6] = Tissue levels in rat six-hour after 8.4 mg/kg IV bolus; format: in vivo; conditions: rat kidney, liver and lung; 8.4 mg/kg IV bolus; in words
# Method: Tissue levels of compounds 1, 2, 3 and 4 were evaluated in kidney, liver and lung six-hour after 8.4 mg/kg IV bolus administration. FIG. 13 depicts the levels as a function of time.
# Compound 67, which is the expected metabolite of proteolytic intracellular degradation of compound 3, was detected in rat tissues after IV infusion, confirming the tissue-specific degradation of compound 3 (Tables 9A, B).
smiles,measurement,setting,value
"NCCC[C@@H](N)C(=O)N[C@H](CCc1ccccc1)C(=O)Nc1cnc2ccccc2c1 [Compound 1, 2-(R),5-Diamino-pentanoic acid [3-phenyl-1-(R)-(quinolin-3-ylcarbamoyl)-propyl]-amide]",stability in cultures of tested bacterial strains,[1],stable
same,clearance,[2],24 mL/min/kg
same,"bacterial load in thighs, EPI with levofloxacin versus levofloxacin alone",[3],significantly enhanced activity of levofloxacin
same,2 h/4 h Ratio,[4]; rat brain concentration,1.34
same,concentration at 4 h,[4]; rat brain,130 ng/mL
same,concentration at 2 h,[4]; rat brain,180 ng/mL
same,2 h/4 h Ratio,[4]; rat heart concentration,0.93
same,concentration at 4 h,[4]; rat heart,2340 ng/mL
same,concentration at 2 h,[4]; rat heart,2180 ng/mL
same,2 h/4 h Ratio,[4]; rat kidney concentration,1.66
same,concentration at 4 h,[4]; rat kidney,29600 ng/mL
same,concentration at 2 h,[4]; rat kidney,49300 ng/mL
same,2 h/4 h Ratio,[4]; rat liver concentration,0.99
same,concentration at 4 h,[4]; rat liver,10600 ng/mL
same,concentration at 2 h,[4]; rat liver,10600 ng/mL
same,2 h/4 h Ratio,[4]; rat lung concentration,1.55
same,concentration at 4 h,[4]; rat lung,4180 ng/mL
same,concentration at 2 h,[4]; rat lung,6500 ng/mL
same,2 h/4 h Ratio,[4]; rat muscle concentration,1.59
same,concentration at 4 h,[4]; rat muscle,2860 ng/mL
same,concentration at 2 h,[4]; rat muscle,4540 ng/mL
same,2 h/4 h Ratio,[4]; rat pancreas concentration,1.34
same,concentration at 4 h,[4]; rat pancreas,4050 ng/mL
same,concentration at 2 h,[4]; rat pancreas,5400 ng/mL
same,2 h/4 h Ratio,[4]; rat spleen concentration,1.35
same,concentration at 4 h,[4]; rat spleen,3710 ng/mL
same,concentration at 2 h,[4]; rat spleen,5010 ng/mL
same,2 h/4 h Ratio,[4]; rat testicles concentration,2.04
same,concentration at 4 h,[4]; rat testicles,280 ng/mL
same,concentration at 2 h,[4]; rat testicles,580 ng/mL
same,2 h/4 h Ratio,[4]; rat thymus concentration,1.23
same,concentration at 4 h,[4]; rat thymus,2760 ng/mL
same,concentration at 2 h,[4]; rat thymus,3410 ng/mL
same,tissue levels and clearance from tissues after 2-hour IV infusion,[4],High levels
same,"growth of P. aeruginosa in infected lungs, EPI alone",[5]; EPI 100 mg/kg IP alone (0/100) versus no addition,No difference in growth
same,"bacterial load in infected lungs, EPI with levofloxacin",[5],significantly decreased bacterial load
same,tissue levels at 6 hours after IV injection,[6],relatively high levels
"NCCC[C@H](N)C(=O)N[C@H](Cc1ccc(C(F)(F)F)cc1)C(=O)Nc1cnc2ccccc2c1 [Compound 21, 2-(S),5-Diamino-pentanoic acid [1-(R)-(quinolin-3-ylcarbamoyl)-2-(4-trifluoromethyl-phenyl)-ethyl]amide]",clearance,[2],16.2 mL/min/kg
same,"bacterial load in thighs, EPI with levofloxacin versus levofloxacin alone",[3],significantly enhanced activity of levofloxacin
same,2 h/6 h Ratio,[4]; rat brain concentration,16.37
same,concentration at 4 h,[4]; rat brain,470 ng/mL
same,concentration at 6 h,[4]; rat brain,30 ng/mL
same,concentration at 2 h,[4]; rat brain,490 ng/mL
same,2 h/6 h Ratio,[4]; rat heart concentration,7.33
same,concentration at 4 h,[4]; rat heart,1760 ng/mL
same,concentration at 6 h,[4]; rat heart,720 ng/mL
same,concentration at 2 h,[4]; rat heart,5250 ng/mL
same,2 h/6 h Ratio,[4]; rat kidney concentration,20.10
same,concentration at 4 h,[4]; rat kidney,20800 ng/mL
same,concentration at 6 h,[4]; rat kidney,2920 ng/mL
same,concentration at 2 h,[4]; rat kidney,58700 ng/mL
same,2 h/6 h Ratio,[4]; rat liver concentration,30.21
same,concentration at 4 h,[4]; rat liver,2320 ng/mL
same,concentration at 6 h,[4]; rat liver,200 ng/mL
same,concentration at 2 h,[4]; rat liver,5950 ng/mL
same,2 h/6 h Ratio,[4]; rat lung concentration,3.43
same,concentration at 6 h,[4]; rat lung,3900 ng/mL
same,concentration at 2 h,[4]; rat lung,13400 ng/mL
same,2 h/6 h Ratio,[4]; rat muscle concentration,3.94
same,concentration at 4 h,[4]; rat muscle,1360 ng/mL
same,concentration at 6 h,[4]; rat muscle,1210 ng/mL
same,concentration at 2 h,[4]; rat muscle,4750 ng/mL
same,2 h/6 h Ratio,[4]; rat pancreas concentration,20.73
same,concentration at 4 h,[4]; rat pancreas,1580 ng/mL
same,concentration at 6 h,[4]; rat pancreas,470 ng/mL
same,concentration at 2 h,[4]; rat pancreas,9710 ng/mL
same,2 h/6 h Ratio,[4]; rat spleen concentration,3.46
same,concentration at 4 h,[4]; rat spleen,4440 ng/mL
same,concentration at 6 h,[4]; rat spleen,2210 ng/mL
same,concentration at 2 h,[4]; rat spleen,7660 ng/mL
same,2 h/6 h Ratio,[4]; rat testicles concentration,8.32
same,concentration at 4 h,[4]; rat testicles,330 ng/mL
same,concentration at 6 h,[4]; rat testicles,80 ng/mL
same,concentration at 2 h,[4]; rat testicles,700 ng/mL
same,2 h/6 h Ratio,[4]; rat thymus concentration,2.02
same,concentration at 4 h,[4]; rat thymus,6000 ng/mL
same,concentration at 6 h,[4]; rat thymus,3590 ng/mL
same,concentration at 2 h,[4]; rat thymus,7250 ng/mL
same,tissue levels and clearance from tissues after 2-hour IV infusion,[4],Slower clearance
"NCCC[C@H](N)C(=O)N[C@H](CCc1ccccc1)C(=O)Nc1cnc2ccccc2c1 [Compound 3, 2-(S),5-Diamino-pentanoic acid [3-phenyl-1-(R)-(quinolin-3-ylcarbamoyl)-propyl]-amide]",stability in cultures of tested bacterial strains,[1],stable
same,clearance,[2],23.3 mL/min/kg
same,"bacterial load in thighs, EPI with levofloxacin versus levofloxacin alone",[3],potentiated levofloxacin in vivo
same,2 h/4 h Ratio,[4]; rat brain concentration,0.35
same,concentration at 4 h,[4]; rat brain,210 ng/mL
same,concentration at 2 h,[4]; rat brain,70 ng/mL
same,2 h/4 h Ratio,[4]; rat heart concentration,4.82
same,concentration at 4 h,[4]; rat heart,470 ng/mL
same,concentration at 2 h,[4]; rat heart,2260 ng/mL
same,2 h/4 h Ratio,[4]; rat kidney concentration,7.28
same,concentration at 4 h,[4]; rat kidney,1680 ng/mL
same,concentration at 2 h,[4]; rat kidney,12200 ng/mL
same,2 h/4 h Ratio,[4]; rat liver concentration,1.60
same,concentration at 4 h,[4]; rat liver,830 ng/mL
same,concentration at 2 h,[4]; rat liver,1330 ng/mL
same,2 h/4 h Ratio,[4]; rat lung concentration,2.23
same,concentration at 4 h,[4]; rat lung,1910 ng/mL
same,concentration at 2 h,[4]; rat lung,4270 ng/mL
same,2 h/4 h Ratio,[4]; rat muscle concentration,1.91
same,concentration at 4 h,[4]; rat muscle,1140 ng/mL
same,concentration at 2 h,[4]; rat muscle,2180 ng/mL
same,2 h/4 h Ratio,[4]; rat pancreas concentration,2.91
same,concentration at 4 h,[4]; rat pancreas,380 ng/mL
same,concentration at 2 h,[4]; rat pancreas,1110 ng/mL
same,2 h/4 h Ratio,[4]; rat spleen concentration,6.16
same,concentration at 4 h,[4]; rat spleen,720 ng/mL
same,concentration at 2 h,[4]; rat spleen,4410 ng/mL
same,2 h/4 h Ratio,[4]; rat testicles concentration,5.14
same,concentration at 4 h,[4]; rat testicles,60 ng/mL
same,concentration at 2 h,[4]; rat testicles,320 ng/mL
same,2 h/4 h Ratio,[4]; rat thymus concentration,1.69
same,concentration at 4 h,[4]; rat thymus,1460 ng/mL
same,concentration at 2 h,[4]; rat thymus,2460 ng/mL
same,tissue levels and clearance from tissues after 2-hour IV infusion,[4],Lower levels
same,"bacterial load in infected lungs, EPI with levofloxacin",[5],dose-dependent efficacy in levofloxacin potentiation
same,tissue levels at 6 hours after IV injection,[6],very low level
